From patent US10166237B2, “Compounds and methods for inducing chondrogenesis” (The Scripps Research Institute, priority 2011, dated 2019)

Legend:
human chondrocytes = test: proliferation of human chondrocytes; assay type: cell-based
hMSCs [1] = test: toxicity in hMSCs; assay type: cell-based, human; conditions: 100 μM
hMSCs [2] = test: type II collagen expression in hMSC cultures (18 day assay); assay type: cell-based, human
Method: The chondrogenic differentiation event was initiated quickly even though a fully differentiated chondrocyte phenotype cannot be assessed prior to 14 days in culture. In an 18 day assay, compound treatment was only required for the first 48 hrs and followed by removal and replacement of the media (in the absence of stimuli, FIG. 2B). The promotion of chondrogenic differentiation was not altered or enhanced upon longer treatment with the stimuli (data not shown).
Primary hMSCs were plated (10,000/well) in 384-well plates and cultured for 18 days. The cells were fixed with 4% formalin, permeabilized with triton (0.5%), digested with 0.5 mg/ml collagenase II to unwind the collagen fibrils, and then immunostained with an antibody recognizing type II collagen. DAPI (2 μg/ml) was added to visualize the nuclei. The chondrogenic nodules stained positive for type II collagen but lacked expression of type X collagen and osteocalcin, markers for chondrocyte hypertrophy and osteoblasts, respectively (not shown). 10,000 hMSCs (passages 3-5) were plated in Greiner 384-well low-bottom plates on day 1. The cells were allowed to adhere and stimulated for 48 hrs (days 2-3) with the indicated stimuli in MSC growth media (Millipore). The media was then removed and replaced with serum-free DMEM for an additional 16 days. This media was replenished on days 10 and 15 of the assay. Primary bovine chondrocytes were isolated from the articular surfaces from mature knees. After one week of culture, 8,500 cells were trypsinized and plated in Greiner 384-well white clear-bottom plates in growth media. […] 20 μl of the supernatant was mixed with 20 μl of the Greiss reagent and quantitated at 540 nm as described by the Promega kit instructions. Bovine cartilage explants (cut in circular explants in a 96 well plate) were cultured in the presence of 20 ng/ml TNFα and 10 ng/ml oncostatin M to induce GAG release for 72 hours (FIG. 2D). PRO1 was added at the indicated concentrations during the entire 72 hrs. […] Parafin sections were hydrated, incubated in low pH Antigen unmasking solution (Vector) at 90 C for 10 minutes, permeabilized with 0.1% collagenase II (only for the sections stained with type II collagen) for 10 minutes, blocked with CAS block for 10 minutes and then incubated with the primary antibody (type II collagen, aggrecan or Timp1) antibody (Abcam) overnight at 4 C. The antigens were visualized through standard ABC detection methods and developed with DAB. Representative of 3 sections stained/treatment group (independent experiments).

FLNA = target: T1, FLNA (Homo sapiens, UniProt P21333); test: photo-crosslinking of biotin-PRO1-azide in hMSCs, competition with PRO1, proteomics; assay type: binding
T1 construct: endogenous in cells; host or cells: hMSCs (primary human mesenchymal stem cells)
Method: To identify the interaction of PRO1 and FLNA, 5 μM biotin-PRO1-azide was added to hMSCs in the differentiation media in the absence or presence of a 50-fold molar excess of PRO1 and incubated for 30 min. 254-nm light was applied to the cells for another 30 min. Cells were lysed in lysis buffer (20 mM Tris-HCl, pH=7.4, 150 mM NaCl, 1 mM EDTA, 1 mM DTT, 0.5% v/v Triton X-100, protease inhibitor cocktail), passed through 26 1/2 gauge needles 20 times, and centrifuged at 12,000 rpm for 30 min. The supernatant was subjected to ammonium sulfate precipitation fractionation. Fractions were analyzed by Western blotting using an anti-biotin antibody (FIG. 6A). Fractions containing 20-40% ammonium sulfate were precipitated using trichloroacetic acid (TCA) and resuspended in isoelectric focusing sample buffer and subjected to 2D SDS-PAGE and Western blotting against biotin. Proteins specifically labeled by biotin-PRO1-azide were recognized, and the corresponding spots on a parallel gel visualized by silver staining were excised. These proteins were identified by mass spectrometry proteomics analysis. hMSCs were treated in monolayer or pellet culture (as indicated in FIG. 6B-6C) for 24-72 hrs. 15 μg of protein was separated by SDS-PAGE and hMSCs were fractionated (as indicated in FIG. 6B-6C) into cytosolic and nuclear fractions or monomeric and filamentous components as previously described.

female 129SVE mice = test: surgically induced cartilage injury (ACL, MCL, MMTL transection); assay type: in vivo; conditions: IA injection days 7, 14 and 21
Method: Surgical transection of the ACL, MCL, and MMTL was performed to induce cartilage injury in female 129SVE mice. Mice were dosed by IA injection on days 7, 14 and 21. The medial tibial plateaus from representative mice were assessed on day 28 (FIG. 4A). Histomorphometric analyses and grading by two blinded observers using a modified OARSI scoring system determined the joint severity scores of the […] tibial plateau on day 28 after surgical induction (FIG. 4B). At 28 days, peripheral blood was collected by retro-orbital bleeding and the serum was used to determine the cleaved type II collagen fragments (CTX-II levels) by ELISA (Serum Pre-Clinical Cartilaps, Immunodiagnostic Systems, Fountain Hills, Ariz.). n=15/treatment group (FIG. 4C).

synovial fibroblasts = test: toxicity in synovial fibroblasts; assay type: cell-based; conditions: 100 μM

T1 sequence (P21333 whole entry): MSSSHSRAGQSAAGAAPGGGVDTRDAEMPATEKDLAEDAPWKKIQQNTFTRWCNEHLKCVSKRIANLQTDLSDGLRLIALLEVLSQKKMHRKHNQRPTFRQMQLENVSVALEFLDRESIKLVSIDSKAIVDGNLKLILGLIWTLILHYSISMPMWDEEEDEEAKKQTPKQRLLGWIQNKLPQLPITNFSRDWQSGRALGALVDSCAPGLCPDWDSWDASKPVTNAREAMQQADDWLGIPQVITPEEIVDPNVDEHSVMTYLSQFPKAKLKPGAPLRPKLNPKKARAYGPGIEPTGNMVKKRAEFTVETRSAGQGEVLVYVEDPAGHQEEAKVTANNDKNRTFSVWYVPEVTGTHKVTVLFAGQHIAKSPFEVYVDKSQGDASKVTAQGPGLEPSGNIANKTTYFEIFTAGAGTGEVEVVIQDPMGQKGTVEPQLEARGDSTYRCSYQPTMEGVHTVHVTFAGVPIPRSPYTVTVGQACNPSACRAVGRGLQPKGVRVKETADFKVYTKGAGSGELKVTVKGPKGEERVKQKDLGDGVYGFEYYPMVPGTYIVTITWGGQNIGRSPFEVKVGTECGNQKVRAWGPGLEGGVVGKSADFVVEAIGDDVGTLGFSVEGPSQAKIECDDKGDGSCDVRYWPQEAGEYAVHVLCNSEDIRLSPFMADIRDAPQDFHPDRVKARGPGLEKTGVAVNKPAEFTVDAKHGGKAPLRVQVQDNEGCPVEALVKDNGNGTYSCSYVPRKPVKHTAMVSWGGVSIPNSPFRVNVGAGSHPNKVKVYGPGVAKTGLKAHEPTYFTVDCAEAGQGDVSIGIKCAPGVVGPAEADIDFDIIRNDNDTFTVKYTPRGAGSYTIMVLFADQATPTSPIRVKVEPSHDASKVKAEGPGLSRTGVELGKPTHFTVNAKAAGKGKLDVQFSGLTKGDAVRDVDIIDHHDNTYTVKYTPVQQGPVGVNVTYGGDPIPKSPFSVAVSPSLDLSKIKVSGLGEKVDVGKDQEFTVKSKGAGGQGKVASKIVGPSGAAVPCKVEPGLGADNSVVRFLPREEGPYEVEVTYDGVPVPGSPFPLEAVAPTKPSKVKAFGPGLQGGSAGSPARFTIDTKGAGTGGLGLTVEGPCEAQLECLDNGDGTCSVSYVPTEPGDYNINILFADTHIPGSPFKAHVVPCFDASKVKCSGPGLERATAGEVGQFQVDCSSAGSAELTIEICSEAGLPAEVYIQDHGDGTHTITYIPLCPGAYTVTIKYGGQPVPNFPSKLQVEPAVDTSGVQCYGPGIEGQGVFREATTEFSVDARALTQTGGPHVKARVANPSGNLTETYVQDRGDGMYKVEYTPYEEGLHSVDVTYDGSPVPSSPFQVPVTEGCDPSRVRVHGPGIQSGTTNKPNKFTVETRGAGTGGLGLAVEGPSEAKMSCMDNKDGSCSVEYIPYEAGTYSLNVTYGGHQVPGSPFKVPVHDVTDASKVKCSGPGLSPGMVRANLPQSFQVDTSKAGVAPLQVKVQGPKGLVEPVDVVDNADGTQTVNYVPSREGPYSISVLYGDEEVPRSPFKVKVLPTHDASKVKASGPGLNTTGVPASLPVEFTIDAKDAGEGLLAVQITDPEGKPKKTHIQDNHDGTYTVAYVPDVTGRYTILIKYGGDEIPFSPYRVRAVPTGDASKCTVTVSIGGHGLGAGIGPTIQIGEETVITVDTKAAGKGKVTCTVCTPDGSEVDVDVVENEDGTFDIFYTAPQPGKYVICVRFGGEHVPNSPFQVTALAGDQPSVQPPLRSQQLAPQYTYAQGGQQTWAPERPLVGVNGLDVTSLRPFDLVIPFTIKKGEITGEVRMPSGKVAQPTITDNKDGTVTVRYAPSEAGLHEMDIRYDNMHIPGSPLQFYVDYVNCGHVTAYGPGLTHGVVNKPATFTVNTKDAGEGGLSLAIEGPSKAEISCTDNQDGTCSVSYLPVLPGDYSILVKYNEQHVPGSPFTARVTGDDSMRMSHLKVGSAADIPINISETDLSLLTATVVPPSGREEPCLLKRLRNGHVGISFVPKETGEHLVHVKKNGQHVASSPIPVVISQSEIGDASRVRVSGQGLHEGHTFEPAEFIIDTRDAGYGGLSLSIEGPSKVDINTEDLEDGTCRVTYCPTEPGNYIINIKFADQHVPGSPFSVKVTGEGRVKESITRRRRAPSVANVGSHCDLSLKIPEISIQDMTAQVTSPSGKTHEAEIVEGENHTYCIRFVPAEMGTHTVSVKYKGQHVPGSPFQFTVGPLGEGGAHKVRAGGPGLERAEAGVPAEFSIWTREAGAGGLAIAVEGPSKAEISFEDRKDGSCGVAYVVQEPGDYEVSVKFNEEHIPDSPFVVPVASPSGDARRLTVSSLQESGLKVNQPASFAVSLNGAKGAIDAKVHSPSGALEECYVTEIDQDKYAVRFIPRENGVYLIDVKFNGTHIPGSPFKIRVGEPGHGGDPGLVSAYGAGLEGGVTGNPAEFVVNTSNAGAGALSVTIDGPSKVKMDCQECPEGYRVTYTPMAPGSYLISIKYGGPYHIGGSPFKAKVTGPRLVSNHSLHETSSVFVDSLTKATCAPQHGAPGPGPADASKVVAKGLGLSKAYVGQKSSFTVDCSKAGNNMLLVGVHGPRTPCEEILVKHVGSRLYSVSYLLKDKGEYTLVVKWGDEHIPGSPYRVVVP

EC50 (hMSCs [2]): 0.08 µM
interaction with FLNA (FLNA): Interacts with FLNA
Tmax (in vivo; 0.05 mg/kg): 1 h
bioavailability (in vivo; 0.05 mg/kg): ~22%
AUC(0-inf) (in vivo; 0.05 mg/kg, AUC0-inf): 0.342 µM·h
Cmax (in vivo; 0.05 mg/kg, Cmax): ~100 nM
concentration at 1 h (in vivo; 0.05 mg/kg, Plasma Conc.): 134 nM
half-life (in vivo; 0.05 mg/kg, T1/2): ~2 h
concentration at 1 h (in vivo; Plasma Conc.): 102 nM
concentration at 3 h (in vivo; Plasma Conc.): 33.6 nM
concentration at 7 h (in vivo; Plasma Conc.): 11.8 nM
Structure (SMILES): O=C(O)c1ccccc1C(=O)Nc1ccc(-c2ccccc2)cc1 [AKT]
proliferative advantage (human chondrocytes): < 1.5 fold
toxicity (hMSCs [1]): No toxicity
induction of chondrogenic differentiation of hMSCs (hMSCs [2]; compared with known inducers TGFβ3, BMP7 or BMP2, FIG. 2B): more potent and efficient
cartilage damage (female 129SVE mice; day 28): Protection
CTX-II peptide in plasma (female 129SVE mice; day 28, ELISA): Inhibition
toxicity (synovial fibroblasts): No toxicity
